Measured values as given in US20180320128A1, “METHODS FOR MODULATING PRODUCTION PROFILES OF RECOMBINANT PROTEINS” (ARES TRADING S.A., priority 2015, published 2018).

Assays:
[1] = system: mAb1 cells (CHO-S cells expressing IgG1 mAb1); test: Fed-batch culture in 96 deep-well plates, constant osmolality (315 mOsm/kg), increasing sugar concentration (experimental approach 1); assay type: cell-based, Chinese hamster; conditions: for increase of High Mannose (HM) species of mAb1 with respect to control: absolute change; for cell growth with increasing sugar concentration: 0-127.5 mM; for increase of HM for mAb1 (overall conclusion): constant osmolality, concentration not given
Procedure: (§1) Assays were performed with two CHO cell lines: • CHO-S cells expressing IgG1 mAb1, herein “Cells mAb1” or “mAb1 cells”. “mAb1” is a fully human monoclonal antibody directed against a soluble protein. Its isoelectric point (pI) is about 8.20-8.30. • CHO-K1 cells expressing IgG1 mAb2, herein “Cells mAb2” or “mAb2 cells”. “mAb2” is a humanized monoclonal antibody directed against a receptor found on the cell membrane. Its isoelectric point (pI) is about 9.30.
(§2) Deepwell plates: Cells expressing mAb2 were inoculated at 0.2×10^6 cells per millilitre (mL), whereas cells expressing mAb1 were inoculated at 0.3×10^6 cells per mL.
(§3) All assays were performed in fed-batch culture.
(§4) A serum-free chemically defined culture medium was used. It was used as it is (o be adapted), or it was supplemented with D-(+)-Raffinose pentahydrate (Sigma-Aldrich, 83400-25G) at different concentrations (0-45 mM). The culture medium was fed, on a regular basis, with a chemically defined feed medium, as well as with glucose in order to keep said glucose level in the range of >0 to about 8 g/L.
(§5) The cultures were performed: • In deepwell plates with a working volume of 450 μL. They were incubated at 36.5° C., 5% de CO2, 90% humidity and shaken at 320 rpm. Each of the fed-batch culture lasted 14 days. • In Spin Tubes (ST) with a working volume of 30 mL (with as permable lid). They were inoculated with a cell density of 0.3*10^6 cells/mL and maintained at 36.5° C., 320 rpm, 5% CO2 and 90% humidity for 14 days.
(§6) Viable cell density and viability were measured with the Guava easyCyte® flow cytometer.
(§7) Antibody titers were measured with the fortéBIO Octet®.
(§8) Glycosylation profiles were established by capillary gel electrophoresis with laser-induced fluorescence (CGE-LIF). Groups of glycans were defined as thereafter in Table 2.
(§9) Experiment was performed to check whether high osmolality or high sugar concentration have an influence on the viability of the cells, VCD as well as on amount of High Mannose (HM) species. A chemically defined proprietary medium with lower osmolality (PM-200) compared to standard media, was used to vary sugar concentrations from 1-150 mM (green) while maintaining the osmolality of standard media (315 mOsm/kg) via supplementation with NaCl (blue), as illustrated in FIG. 1. Standard media and PM-200 differ in the composition, so the missing amounts of raw material were added (except NaCl). As sugars raffinose (a trisaccharide) and sucrose (a disaccharide) were chosen. Stock solutions (raffinose 22 mM, raffinose 220 mM, sucrose 50 mM, sucrose 1 M and NaCl 1 M) were prepared and added to the media before inoculation.
(§10) Stock solutions were prepared with media to prevent dilution. The given concentrations equal the concentrations in media before incoculation. CHO-S cells (=mAb1 cells) expressing mAb1 were expanded for 49 days, CHO-K1 (=mAb2 cells) expressing mAb2 were expanded for 28 days.

[2] = system: mAb2 cells (CHO-K1 cells expressing IgG1 mAb2); test: as above; assay type: cell-based, Chinese hamster; conditions: for increase of High Mannose (HM) species of mAb2 with respect to control: absolute change; for increase of HM for mAb2 (overall conclusion): constant osmolality, concentration not given
Procedure: as §1, §2, §3, §4, §5, §6, §7, §8, §9, §10

[3] = system: mAb1 cells (CHO-S cells expressing IgG1 mAb1); test: Fed-batch culture in Spin Tubes, constant osmolality (315 mOsm/kg), increasing raffinose concentration; assay type: cell-based, Chinese hamster
Procedure: as §1
Spintubes: Cells expressing both mAb1 and mAb2 were inoculated at 0.3×10^6 cells per mL.
as §3, §4, §5
Glycosylation profiles were established by capillary gel electrophoresis with laser-induced fluorescence (CGE-LIF). Groups of glycans were defined as thereafter in Table 2. […]
A second experiment with constant osmolality (315 mOsm/kg) and increasing raffinose concentration was performed in Spin Tubes with a working volume of 30 mL and mAb1 cells. FIG. 10a depicts VCD and viability from mAb1 cells of the experimental approach with constant osmolality and increasing raffinose concentration in Spin Tubes. […] The lowest VCD was obtained at 100 mM raffinose (10.2±0.2*10^6 cells/mL), as illustrated in FIG. 10b.

[4] = system: mAb2 cells (CHO-K1 cells expressing IgG1 mAb2); test: Fed-batch culture in deep-well plates, 0 or 30 mM raffinose with increasing osmolality (experimental approach 2); assay type: cell-based, Chinese hamster
Procedure: as §1, §2, §3, §4, §5, §6, §7, §8, §10
The second experimental approach was performed with increasing osmolality and constant sugar concentrations (see table 3 and methods in example 1).

[5] = system: recombinant CHO cells; conditions: cited from earlier work
[6] = 1 mM sugar in medium, 315 mOsm/kg, 14-day culture
[7] = 5 mM sugar, 315 mOsm/kg, working day 14
[8] = 100 mM sugar, 315 mOsm/kg, working day 14
[9] = 100 mM raffinose, Spin Tubes, absolute change
[10] = 425 mOsm/kg with 30 mM raffinose
[11] = 80 mM sugar, 315 mOsm/kg, working day 14
[12] = 127.5 mM sugar, 315 mOsm/kg, working day 14
[13] = 50 mM sugar, 315 mOsm/kg, working day 14

In the case of `OC[C@H]1O[C@H](OC[C@H]2O[C@H](O[C@]3(CO)O[C@H](CO)[C@@H](O)[C@@H]3O)[C@H](O)[C@@H](O)[C@@H]2O)[C@H](O)[C@@H](O)[C@H]1O` [raffinose, O-α-D-Galactopyranosyl-(1→6)-α-D-g lucopyranosyl-(1→2)-β-D-fructofuranoside], the “maximum cell concentration (VCD)” value [1, 6] is reported as 16.2±1.0 *10^6 cells/mL, the cell viability [1, 7] is reported as “about 57%” and the absolute harvest titer ([1]; 10 mM sugar, 315 mOsm/kg, working day 14) is reported as “about 2650 mg/L”. For the same molecule, the “increase of High Mannose (HM) species of mAb1 with respect to control” value ([1]; 50 mM sugar, 315 mOsm/kg) was 6.8%, the “maximum cell concentration (VCD)” value ([1]; 100 mM sugar in medium, 315 mOsm/kg) was 2.3±2.1 *10^6 cells/mL and the specific productivity [1, 8] was “about 45 pg/cell/day”. For the same molecule, the “product titer compared to control” value ([1]; 1-65 mM sugar, 315 mOsm/kg, working day 14) was “higher product titer than control”, the absolute harvest titer ([1]; 80-127.5 mM sugar, 315 mOsm/kg, working day 14) was 825 to 975 mg/L and the “change of fucosylated species of mAb1 with increasing sugar concentration” value ([1]; 315 mOsm/kg) was “decrease”. The “change of galactosylated, HM and non-fucosylated species of mAb1 with increasing sugar concentration” value ([1]; 315 mOsm/kg) was “increase”, the “cell growth with increasing sugar concentration” value ([1]; 315 mOsm/kg) was “inhibited” and the “specific productivity with increasing sugar concentration” value ([1]; 315 mOsm/kg, working day 14) was “increased”. The “increase of HM for mAb1 (overall conclusion)” value [1] was 7%, the “maximum cell concentration (VCD)” value ([2]; 5 mM sugar, 315 mOsm/kg) was 11.85±1.1 *10^6 cells/mL and the “maximum VCD (lowest of the conditions)” value ([2]; 80 mM sugar, 315 mOsm/kg) was 6.4±1.7 *10^6 cells/mL. For the same molecule, the specific productivity ([2]; 100 mM sugar, 315 mOsm/kg) was “about 30 pg/cell/day”, the “increase of High Mannose (HM) species of mAb2 with respect to control” value ([2]; 100 mM sugar, 315 mOsm/kg) was 6.3% and the harvest titer [2, 8] was “about 2350 mg/L”. The “cell growth with increasing sugar concentration” value ([2]; 315 mOsm/kg) was “reduced”, the “change of fucosylated species of mAb2 with higher sugar concentration” value ([2]; 315 mOsm/kg) was “decrease” and the “change of galactosylated, HM and non-fucosylated species of mAb2 with higher sugar concentration” value ([2]; 315 mOsm/kg) was “increase”. The “increase of HM for mAb2 (overall conclusion)” value [2] was 6%, the “maximum cell concentration (VCD)” value ([3]; 10 mM raffinose, Spin Tubes, n=2) was 17.8±0.2 *10^6 cells/mL and the “concentration of antibodies (harvest titer)” value ([3]; 10 mM raffinose, working day 14, Spin Tubes) was “about 2200 mg/L”. For the same molecule, the “increase of productivity versus control” value ([3]; 100 mM raffinose, Spin Tubes) was “about 64%”, the “productivity per cell per day (PCD), peak” value ([3]; 100 mM raffinose, Spin Tubes) was “about 23 pg/cell/day” and the “viability at the end of cultivation” value ([3]; 100 mM raffinose, Spin Tubes) was “about 86%”. For the same molecule, the “decrease of fucosylated glycans of mAb1 with respect to control” value [3, 9] was 15.9%, the “increase of Man5 of mAb1 with respect to control” value [3, 9] was 7.7% and the “maximum VCD (lowest of the conditions)” value ([3]; 100 mM raffinose, Spin Tubes, n=2) was 10.2±0.2 *10^6 cells/mL. For the same molecule, the “acid isoforms and amount of aggregates with increasing raffinose concentration” value ([3]; Spin Tubes, data not shown) was “increased”, the “amount of alkaline isoforms with increasing raffinose concentration” value ([3]; Spin Tubes, data not shown) was “decreased” and the “absolute change of unknown, galactosylated and sialylated glycoforms” value ([3]; raffinose supplementation, Spin Tubes) was “not affected”. For the same molecule, the “absolute harvest titer compared to control” value ([3]; supplemented raffinose (10-100 mM), Spin Tubes) was “higher than the control”, the “viability at the end of the experiment” value ([4]; 375 mOsm/kg and 30 mM raffinose) was “about 59%” and the absolute harvest titer ([4]; 425 mOsm/kg and 30 mM raffinose, working day 14) was “about 1150 mg/L”. The “increase of HM species of mAb2 with respect to control (315 mOsm/kg)” value [4, 10] was 8.5% and the “maximum VCD (lowest of the conditions)” value [4, 10] was 8.2±2.3 *10^6 cells/mL.
In the case of `CCCC(=O)[O-].[Na+]` [sodium butyrate], the “cell viability at the end of the production run” value ([5]; batch culture, after 8 days of culture) is listed as “less than 45%” and the cell viability ([5]; perfusion batch culture, within 6 days of treatment) is listed as 15%.
For `OC[C@H]1O[C@@](CO)(O[C@H]2O[C@H](CO)[C@@H](O)[C@H](O)[C@H]2O)[C@@H](O)[C@@H]1O` [sucrose, α-D-glucopyranosyl-(1→2)-β-D-fructofuranoside], the “maximum cell concentration (VCD)” value [1, 6] was 18.2±1.7 *10^6 cells/mL, the absolute harvest titer ([1]; 1 mM sugar, 315 mOsm/kg, working day 14) was “about 2800 mg/L” and the absolute harvest titer [1, 11] was roughly 2550 mg/L. The specific productivity [1, 11] was “about 26 pg/cell/day”, the “increase of High Mannose (HM) species of mAb1 with respect to control” value ([1]; 100 mM sugar, 315 mOsm/kg) was 14.2% and the “maximum cell concentration (VCD)” value ([1]; 127 mM (maximum tested) sugar, 315 mOsm/kg) was 9.6±3.2 *10^6 cells/mL. The “increase of High Mannose (HM) species of mAb1 with respect to control” value ([1]; 127.5 mM sugar, 315 mOsm/kg) was 14.3%, the cell viability [1, 12] was roughly 64% and the “change of fucosylated species of mAb1 with increasing sugar concentration” value ([1]; 315 mOsm/kg) was “decrease”. For the same molecule, the “change of galactosylated, HM and non-fucosylated species of mAb1 with increasing sugar concentration” value ([1]; 315 mOsm/kg) was “increase”, the “cell growth with increasing sugar concentration” value ([1]; 315 mOsm/kg) was “inhibited” and the “specific productivity with increasing sugar concentration” value ([1]; 315 mOsm/kg, working day 14) was “no change”. For the same molecule, the “increase of HM for mAb1 (overall conclusion)” value [1] was 14%, the absolute harvest titer [2, 7] was “about 700 mg/L” and the “maximum cell concentration (VCD)” value ([2]; 10 mM sugar, 315 mOsm/kg) was 11.1±1.6 *10^6 cells/mL. The absolute harvest titer [2, 13] was “about 2100 mg/L”, the specific productivity [2, 13] was “about 21 pg/cell/day” and the “increase of High Mannose (HM) species of mAb2 with respect to control” value ([2]; 100 mM sugar, 315 mOsm/kg) was 6.0%. For the same molecule, the “maximum VCD (lowest of the conditions)” value ([2]; 127.5 mM sugar, 315 mOsm/kg) was 6.9±1.1 *10^6 cells/mL, the “increase of High Mannose (HM) species of mAb2 with respect to control” value ([2]; 127.5 mM sugar, 315 mOsm/kg) was 9.1% and the specific productivity [2, 12] was “about 24 pg/cell/day”. For the same molecule, the “change of fucosylated species of mAb2 with higher sugar concentration” value ([2]; 315 mOsm/kg) was “decrease”, the “change of galactosylated, HM and non-fucosylated species of mAb2 with higher sugar concentration” value ([2]; 315 mOsm/kg) was “increase” and the “increase of HM for mAb2 (overall conclusion)” value [2] was 9%. The “production of antibodies with respect to control” value ([2]; sugar supplementation, 315 mOsm/kg, working day 14) was “decrease”.
